# Reference: ChEMBL document CHEMBL1201862, “PubChem BioAssay data set” (2004)
# Calls of active or inactive are those of the source.
# What was measured:
# [1] = biological target: T1, Dual specificity protein phosphatase 3 (Homo sapiens, UniProt P51452); test: VHR1 phosphatase inhibitors, primary screen, biochemical, absorbance, uHTS (AID 1654)
# [2] = biological target: T1, Dual specificity protein phosphatase 3; test: VHR1 phosphatase inhibitors, biochemical (AID 1878)
# [3] = biological target: T2, Dual specificity protein phosphatase 6 (Rattus norvegicus, UniProt Q64346); test: inhibition of rat DUSP6 enzyme activity – biochemical, in vitro, primary screen (AID 425)
# T2 sequence (Q64346 whole entry): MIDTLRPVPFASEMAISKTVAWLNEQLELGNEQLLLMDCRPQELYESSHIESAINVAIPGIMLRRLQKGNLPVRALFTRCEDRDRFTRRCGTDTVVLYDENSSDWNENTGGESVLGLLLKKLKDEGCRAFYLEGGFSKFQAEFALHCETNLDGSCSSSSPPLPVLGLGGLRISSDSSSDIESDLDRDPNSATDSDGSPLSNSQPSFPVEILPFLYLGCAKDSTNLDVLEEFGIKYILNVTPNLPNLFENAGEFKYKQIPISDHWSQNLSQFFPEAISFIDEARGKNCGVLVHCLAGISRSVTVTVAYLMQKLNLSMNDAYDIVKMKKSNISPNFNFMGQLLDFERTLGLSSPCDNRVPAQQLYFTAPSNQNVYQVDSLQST
# [4] = biological target: T1, Dual specificity protein phosphatase 3; test: SAR VHR1 absorbance Assay for In Vitro dose response studies. [Related pubchem assays (depositor defined):AID1654, AID1661, AID1878, AID1992, AID2004]
# [5] = biological target: T1, Dual specificity protein phosphatase 3; test: SAR VHR1 Fluorescent Assay for In Vitro dose response studies. [Related pubchem assays (depositor defined):AID1654, AID1661, AID1878, AID1992, AID2004, AID2070, AID2085]; format: functional
# [6] = biological target: T3, Tyrosine-protein phosphatase non-receptor type 7 (Homo sapiens, UniProt P35236); test: redox-active compounds inhibiting HePTP phosphatase – biochemical, fluorescence, mechanism study (AID 2068); format: functional
# T3 sequence (P35236 whole entry): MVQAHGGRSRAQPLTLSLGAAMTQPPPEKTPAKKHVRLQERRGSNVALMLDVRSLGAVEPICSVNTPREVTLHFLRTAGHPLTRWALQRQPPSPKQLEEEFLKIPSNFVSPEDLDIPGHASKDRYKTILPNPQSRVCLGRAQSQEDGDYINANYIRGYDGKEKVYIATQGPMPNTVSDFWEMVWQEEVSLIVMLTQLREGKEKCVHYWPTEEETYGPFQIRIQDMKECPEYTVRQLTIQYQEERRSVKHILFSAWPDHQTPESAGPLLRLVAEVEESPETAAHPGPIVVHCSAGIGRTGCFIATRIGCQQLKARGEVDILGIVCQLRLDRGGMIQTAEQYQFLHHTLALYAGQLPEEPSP
# [7] = biological target: T2, Dual specificity protein phosphatase 6; format: functional
# [8] = biological target: Tyrosine-protein phosphatase non-receptor type 11 (Homo sapiens, UniProt Q06124); test: PTPN11 enzyme inhibitors – biochemical, selectivity assay for STEP inhibitor project, dose response (AID 602367); format: functional; settings: read-out: IC50_Mean
# Sequence of Tyrosine-protein phosphatase non-receptor type 11 (Q06124 whole entry): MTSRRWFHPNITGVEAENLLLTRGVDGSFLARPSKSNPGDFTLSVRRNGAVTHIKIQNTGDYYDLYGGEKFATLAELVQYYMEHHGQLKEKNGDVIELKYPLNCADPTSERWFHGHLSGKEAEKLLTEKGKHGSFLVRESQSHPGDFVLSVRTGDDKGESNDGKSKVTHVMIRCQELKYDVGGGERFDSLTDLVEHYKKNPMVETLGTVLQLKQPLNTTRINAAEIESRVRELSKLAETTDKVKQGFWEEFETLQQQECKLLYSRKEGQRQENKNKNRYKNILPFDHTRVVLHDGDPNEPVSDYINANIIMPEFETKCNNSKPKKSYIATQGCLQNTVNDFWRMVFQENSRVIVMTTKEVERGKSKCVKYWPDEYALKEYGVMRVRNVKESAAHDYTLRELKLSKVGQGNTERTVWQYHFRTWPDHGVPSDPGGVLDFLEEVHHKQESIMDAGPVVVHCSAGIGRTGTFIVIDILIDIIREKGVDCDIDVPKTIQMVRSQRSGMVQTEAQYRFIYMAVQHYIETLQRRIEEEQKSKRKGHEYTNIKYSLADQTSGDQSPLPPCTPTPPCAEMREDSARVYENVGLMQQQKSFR
# [9] = biological target: Tyrosine-protein phosphatase non-receptor type 5 (Homo sapiens, UniProt P54829); test: PTPN5 enzyme inhibition – biochemical, fluorescence intensity, uHTS hits, confirmation (AID 602372); format: functional; settings: read-out: IC50_Mean
# Sequence of Tyrosine-protein phosphatase non-receptor type 5 (P54829 whole entry): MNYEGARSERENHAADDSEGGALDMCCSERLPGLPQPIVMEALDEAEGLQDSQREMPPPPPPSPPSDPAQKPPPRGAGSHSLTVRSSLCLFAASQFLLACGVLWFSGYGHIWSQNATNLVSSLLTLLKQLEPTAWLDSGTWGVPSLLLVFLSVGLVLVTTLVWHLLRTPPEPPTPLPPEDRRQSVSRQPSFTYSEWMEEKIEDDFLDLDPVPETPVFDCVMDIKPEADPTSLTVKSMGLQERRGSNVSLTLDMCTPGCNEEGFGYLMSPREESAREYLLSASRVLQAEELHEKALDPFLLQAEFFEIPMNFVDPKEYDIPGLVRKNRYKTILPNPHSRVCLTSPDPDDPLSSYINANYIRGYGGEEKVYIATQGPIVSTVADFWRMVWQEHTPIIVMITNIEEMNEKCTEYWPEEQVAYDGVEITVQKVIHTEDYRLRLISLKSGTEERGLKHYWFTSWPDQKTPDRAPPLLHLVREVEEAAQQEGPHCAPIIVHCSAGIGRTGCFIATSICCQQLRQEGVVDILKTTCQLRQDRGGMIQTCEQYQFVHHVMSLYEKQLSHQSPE
# [10] = biological target: T1, Dual specificity protein phosphatase 3; test: VHR phosphatase inhibition, dose response, selectivity assay for STEP inhibitor project, biochemical (AID 602374); format: functional; settings: read-out: IC50_Mean
# [11] = tested on: HEK293; test: cells; settings: Homo sapiens
# [12] = tested on: HEK293; test: cells; settings: Homo sapiens; remark: listed apart in the source
# [13] = viability of PTEN-deleted HCT116 cells – cell-based, HCT116 PTEN knockout, dose response (AID 1047); format: functional;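 also: HCT116 colon tumor cells with PTEN knocked out; cells exposed to compound for 60 hours before readout; potency for loss of cell viability measured by luminescence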
# [14] = viability of HCT116 lacking mutant beta-catenin – cell-based, human colon tumor, dose response (AID 1045); format: functional;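 also: HCT116 colon tumor cells with beta catenin knocked out; cells exposed to compound for 60 hours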
# [15] = Luminescence Cell-Based Dose Retest to Confirm Inhibitors of Cancer Stem Cells. [Related pubchem assays (depositor defined):AID2717, AID2721]; format: functional; settings: Homo sapiens
# [16] = viability loss of HMLE_sh_eGFP cells – cell-based, luminescence, counter-screen for HMLE_sh_ECad selective toxicity project, dose response (AID 463074); format: functional, Homo sapiens;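 also: HMLE human mammary epithelial cells expressing control shRNA against eGFP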
# [17] = luciferase reporter signal suppression in cells – H4 neuroglioma cells, luminescence, dose response (AID 1990); format: functional, cell-based
# [18] = luciferase reporter signal reduction – luminescence, H4-C neuroglioblastoma cells, dose response (AID 2458); format: functional, cell-based;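 also: H4 neuroglioblastoma cells stably carrying a luciferase reporter gene fusion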
# [19] = tested on: BJ; test: BJ-TERT fibroblast viability loss – cell-based, RAS-independent, luminescence, dose response (AID 1933); format: functional; settings: Homo sapiens
# [20] = cells; format: functional, cell-based
# [21] = biological target: T4, Heat shock factor protein 1 (Mus musculus, UniProt P38532); test: decrease of HSF1-responsive luciferase luminescence – cell-based, NIH3T3, dose retest, confirmation (AID 2382); format: functional;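 also: NIH3T3 fibroblasts with HSF1-driven luciferase reporter stressed by proteasome inhibitor MG132; luminescence from HSF1-driven luciferase expression after 8 hours of MG132 stress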
# T4 sequence (P38532 whole entry): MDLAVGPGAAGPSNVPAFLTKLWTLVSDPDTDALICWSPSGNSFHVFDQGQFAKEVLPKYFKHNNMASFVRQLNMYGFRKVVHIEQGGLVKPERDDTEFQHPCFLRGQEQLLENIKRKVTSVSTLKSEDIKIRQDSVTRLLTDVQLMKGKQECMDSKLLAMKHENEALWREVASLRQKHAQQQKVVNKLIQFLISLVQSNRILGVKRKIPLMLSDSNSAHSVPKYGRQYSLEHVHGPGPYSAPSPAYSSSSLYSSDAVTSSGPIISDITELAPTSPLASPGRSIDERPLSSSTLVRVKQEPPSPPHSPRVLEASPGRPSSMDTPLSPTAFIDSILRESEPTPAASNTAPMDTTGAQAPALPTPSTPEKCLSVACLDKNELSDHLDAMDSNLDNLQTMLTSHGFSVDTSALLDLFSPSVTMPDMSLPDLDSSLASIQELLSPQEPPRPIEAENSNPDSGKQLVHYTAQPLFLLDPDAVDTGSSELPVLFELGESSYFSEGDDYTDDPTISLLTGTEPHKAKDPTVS
# [22] = alpha-synuclein stem-loop luciferase translation blockers – H4 neuroglioma cells, luminescence, confirmation (AID 1988); format: functional, cell-based
# [23] = tested on: BJ; test: cells; format: functional, cell-based; settings: Homo sapiens
# [24] = tested on: BJ; test: BJ-TERT-LT-ST fibroblast viability loss – cell-based, RAS-independent, luminescence, dose response (AID 1935); format: functional; settings: Homo sapiens;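 also: BJ fibroblasts immortalized with TERT plus LT and ST oncogenes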
# [25] = DRD fibroblast viability loss – cell-based, non-viral oncogenic, luminescence, dose response (AID 1934); format: functional; settings: Homo sapiens
# [26] = alpha-synuclein stem-loop translation blockers – luminescence, H4 neuroglioblastoma cells, dose confirmation, confirmation (AID 2454); format: functional, cell-based;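 also: H4 neuroglioblastoma cells carrying an alpha-synuclein 5'UTR luciferase reporter; potency for inhibition of the luciferase signal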
# [27] = tested on: Jurkat; test: blockers of NF-kB activation in T cells – Jurkat, luciferase reporter, luminescence, B- and T-cell, dose response (AID 489004); format: functional, cell-based; settings: Homo sapiens;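 also: NF-kB luciferase reporter Jurkat cells stimulated with PMA plus ionomycin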
# [28] = HEK-293T viability loss, compound-treated – cell-based, uHTS hits, cytotoxicity control for B/T-cell NF-kB inhibitor project, dose response (AID 489019); format: functional;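 also: IC50 reflects cytotoxicity as loss of cell viability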
# [29] = tested on: BJ; test: growth inhibition of engineered Ras-driven BJ cells – cell-based, alamar blue fluorescence, cherrypicked samples, dose response (AID 2631); format: functional; settings: Homo sapiens;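 also: confirmatory dose-response assay in RAS-dependent BJ fibroblasts engineered with TERT, LT and ST, with cytotoxicity read by fluorescence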
# [30] = A549 cell cytotoxicity, dose response, cytotoxicity control, plate reader, cherry-pick, antagonist series (AID 743412); format: functional, cell-based
# [31] = toxicity toward HepG2 liver cells – cell-based, plate reader, cherry-pick, antagonist series, cytotoxicity control, dose response (AID 743416); format: functional
# [32] = blockers of bursicon-stimulated LGR2 cAMP reporter – cell-based, HEK293, CRE-luciferase reporter, cherry pick, set 2, dose response (AID 743343); format: functional;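 also: transfected cells were stimulated with diluted bursicon conditioned medium after compound addition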
# [33] = blockade of melanocortin 4 receptor signaling – cell-based, plate reader, cherry pick, counter-screen for LGR2 antagonist project, dose response (AID 743444); format: functional;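 also: transfected HEK 293 cells stimulated with alpha-MSH peptide; potency of inhibitors of the alpha-MSH evoked signal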
# [34] = viability loss in HEK293 cells – cell-based, plate reader, cherry-picked samples, cytotoxicity control, dose response (AID 743446); format: functional
# T1 sequence (P51452 whole entry): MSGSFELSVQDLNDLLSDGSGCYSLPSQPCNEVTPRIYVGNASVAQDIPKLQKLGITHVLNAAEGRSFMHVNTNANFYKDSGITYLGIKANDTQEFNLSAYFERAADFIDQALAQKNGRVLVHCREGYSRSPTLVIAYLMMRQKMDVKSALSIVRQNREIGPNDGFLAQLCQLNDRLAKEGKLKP
smiles,measurement,setting,value
S=C(c1cn(CCOc2ccccc2)c2ccccc12)N1CCCC1,IC50,[1],3.97 µM (active)
same,IC50,[2],8.8 µM (active)
same,IC50,[3],> 158 µM (not active)
same,IC50,[4],0.727 µM (active)
same,IC50,[5],> 99 µM (inactive)
same,IC50,[6],0.129 µM (active)
same,IC50,[7],> 99 µM (inactive)
same,IC50,[8],5.47 µM (active)
same,IC50,[9],17 µM (active)
same,IC50,[10],1.27 µM (active)
Brc1ccc2c(c1)-c1ccccc1C1=NCCN12,EC50,[11],> 59.8 µM (inactive)
same,EC50,[12],> 59.8 µM (inactive)
O=C(N/N=C/c1cn(-c2cccs2)nc1-c1ccccc1)c1ccccc1Br,EC50,[13],30.2 µM (active)
same,EC50,[14],31 µM (active)
same,AC50,[15],3.75 µM (active)
same,AC50,[16],23 µM (active)
Nc1ncnc2c1ccn2[C@@H]1O[C@H](CO)[C@@H](O)[C@H]1O [TUBERCIDIN],EC50,[17],< 0.1 µM (active)
same,EC50,[18],0.252 µM (active)
same,EC50,[19],2.08 µM (inconclusive)
same,EC50,[20],0.223 µM (active)
same,EC50,[21],3.06 µM (active)
same,EC50,[22],< 0.1 µM (active)
same,EC50,[23],5.45 µM (inconclusive)
same,EC50,[24],5.04 µM (active)
same,EC50,[25],4.12 µM (active)
same,EC50,[26],0.204 µM (active)
same,IC50,[27],7.83 µM (active)
same,IC50,[28],> 80 µM (inactive)
same,EC50,[29],< 0.104 µM (active)
same,AC50,[30],0.0912 µM (active)
same,AC50,[31],0.25 µM (active)
same,AC50,[32],2.77 µM (active)
same,AC50,[33],3.98 µM (active)
same,AC50,[34],1.6 µM (active)
